This note sets out measurements from patent US20100152252A1, “Heterocyclyl-substituted-ethylamino-phenyl derivatives, their preparation and use as medicaments” (LABORATORIOS DEL DR. ESTEVE,S.A., priority 2006, published 2010).

Where only a bound is given, the exact number is not on record here.

As a reminder, the IC50 is the point on the concentration scale where inhibition reaches its midpoint. The EC50 is the concentration needed to bring the measured effect to its halfway point. Read a low EC50 as an effect from little substance. As usually defined, the Emax is the size of the effect at its maximum, as opposed to the concentration needed.

The first assay deals with 5-HT1. Nature of the assay: 5-HT1 IC50. The assay is classed as binding.
Conditions: not given
`Cc1nn(C)c(C)c1-c1cccc(CCN(C)C)c1` [Example 1, Dimethyl-{2-[3-(1,3,5-trimethyl-1H-pyrazol-4-yl)-phenyl]-ethyl}-amine]: the IC50 was greater than 1000 nM.

In a further assay the target is T1, Cloned Human Serotonin Receptor, Subtype 7 (h5HT7) (Homo sapiens, UniProt P34969).
T1 construct: purchased PerkinElmer 6120512; host or cells: CHO cells
T1 sequence (P34969 whole entry): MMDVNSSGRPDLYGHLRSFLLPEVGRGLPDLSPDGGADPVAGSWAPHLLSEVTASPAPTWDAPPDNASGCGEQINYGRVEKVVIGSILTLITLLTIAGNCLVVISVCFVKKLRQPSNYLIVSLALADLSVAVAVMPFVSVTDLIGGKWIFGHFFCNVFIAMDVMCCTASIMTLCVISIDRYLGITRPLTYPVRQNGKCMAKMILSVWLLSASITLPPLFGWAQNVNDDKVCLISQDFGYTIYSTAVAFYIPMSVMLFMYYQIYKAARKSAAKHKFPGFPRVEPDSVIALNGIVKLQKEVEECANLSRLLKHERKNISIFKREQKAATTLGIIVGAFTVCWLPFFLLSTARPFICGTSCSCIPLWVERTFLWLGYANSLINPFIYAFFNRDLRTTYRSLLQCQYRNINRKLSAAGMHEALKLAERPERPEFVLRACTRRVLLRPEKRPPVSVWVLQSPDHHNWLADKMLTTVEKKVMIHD
Nature of the assay: Radioligand binding, [125I]LSD, h5HT7 expressed in CHO cells.
Conditions: not given
How it is done:
Radioligand binding assays were performed using the Cloned Human Serotonin Receptor, Subtype 7 (h5HT7), expressed in CHO cells, coated on Flashplate (Basic FlashPlate Cat.: SMP200) from PerkinElmer (Cat.: 6120512). The protocol assay was essentially the recommended protocol in the Technical Data Sheet by PerkinEmer Life and Analytical Sciences. The Mass membrane protein/well was typically […] and the Receptor/well was about 9-10 fmoles. The Flashplate were let equilibrate at room temperature for one hour before the addition of the components of the assay mixture. The binding buffer was: 50 mM Tris-HCl, pH 7.4, containing 10 mM MgCl2, 0.5 mM EDTA and 0.5% BSA. The radioligand was [^125I]LSD at a final concentration of 0.82 nM. Nonspecific binding was determined with 50 μM of Clozapine. The assay volume was 25 μl. TopSeal-A were applied onto Flashplate microplates and they were incubated at room temperature for 240 minutes in darkness. The radioactivity were quantified by liquid scintillation spectrophotometry (Wallac 1450 Microbeta Trilux) with a count delay of 4 minutes prior to counting and a counting time of 30 seconds per well. Competition binding data were analyzed by using the LIGAND program (Munson and Rodbard, LIGAND: A versatile, computerized approach for characterization of ligand-binding systems. Anal. Biochem. 107: 220-239, 1980) and assays were performed in triplicate determinations for each point.
In the case of `CNCCc1cccc(-c2c(Cl)cccc2OC)c1` [Example 39, [2-(6′-Chloro-2′-methoxy-biphenyl-3-yl)-ethyl]-methyl-amine], the IC50 was 8.8 nM.

Molecule `CN(C)CCc1cccc(-c2c(Cl)cccc2Cl)c1` [Example 34] displayed an IC50 of 5 ± 1.7 nM.

`COc1cccc(OC)c1-c1cccc(CCN)c1` [Example 33, 2-(2′6′-Dimethoxy-biphenyl-3-yl)-ethylamine]: the IC50 is 122 nM.

On to `CNCCc1cccc(-c2cccnc2OC)c1` [Example 37, {2-[3-(2-Methoxy-pyridin-3-yl)-phenyl]-ethyl}-methyl-amine], for which the IC50 amounted to 157 nM.

Molecule `COc1cccc(Cl)c1-c1cccc(CCN(C)C)c1` [Example 38, [2-(6′-Chloro-2′-methoxy-biphenyl-3-yl)-ethyl]-dimethyl-amine] registered an IC50 of 24 ± 2.3 nM.

In turn, `CCCN(CCC)CCc1cccc(-c2c(C)nn(C)c2C)c1` [Example 4, Dipropyl-{2-[3-(1,3,5-trimethyl-1H-pyrazol-4-yl)-phenyl]-ethyl}-amine] displayed an IC50 of 56.9 ± 17.9 nM.

In the case of `CCCN(CCC)CCc1cccc(-c2c(C)cccc2C)c1` [Example 12, [2-(2′,6′-Dimethyl-biphenyl-3-yl)-ethyl]-dipropyl-amine], the IC50 came to 42.6 ± 21.1 nM.

For the molecule `COc1cccc(OC)c1-c1cccc(CCN(C)C)c1` [Example 13, [2-(2′,6′-Dimethoxy-biphenyl-3-yl)-ethyl]-dimethyl-amine], the IC50 came to 19.7 ± 1.5 nM.

In the case of `Cc1nn(C)c(C)c1-c1cccc(CCN)c1` [Example 29, 2-[3-(1,3,5-Trimethyl-1H-pyrazol-4-yl)-phenyl]-ethylamine], the IC50 is 4.5 ± 1.5 nM.

For `CCCN(CCC)CCc1cccc(-c2ccccc2OC)c1` [Example 24, [2-(2′-Methoxy-biphenyl-3-yl)-ethyl]-dipropyl-amine], the IC50 came out at 84.9 nM.

On to `CN(C)CCc1cccc(-c2c(F)cccc2F)c1` [Example 35, [2-(2′,6′-Difluoro-biphenyl-3-yl)-ethyl]-dimethyl-amine], for which the IC50 amounted to 20.8 nM.

As for `CCN(CC)CCc1cccc(-c2c(C)cccc2C)c1` [Example 11, [2-(2′,6′-Dimethyl-biphenyl-3-yl)-ethyl]-diethyl-amine], the IC50 was determined as 43.5 ± 15.9 nM.

`CCN(CC)CCc1cccc(-c2c(C)nn(C)c2C)c1` [Example 3, Diethyl-{2-[3-(1,3,5-trimethyl-1H-pyrazol-4-yl)-phenyl]-ethyl}-amine] showed an IC50 of 76.2 nM.

`Cc1cccc(C)c1-c1cccc(CCN(C)C)c1` [Example 9, [2-(2′,6′-Dimethyl-biphenyl-3-yl)-ethyl]-dimethyl-amine]: the IC50 was found to be 10.1 ± 0.8 nM.

Take `Cc1nn(C)c(C)c1-c1cccc(CCN(C)C)c1` [Example 1, Dimethyl-{2-[3-(1,3,5-trimethyl-1H-pyrazol-4-yl)-phenyl]-ethyl}-amine]: the IC50 was 6.1 ± 0.7 nM.

Take `COc1ccccc1-c1cccc(CCN(C)C)c1` [Example 21, [2-(2′-Methoxy-biphenyl-3-yl)-ethyl]-dimethyl-amine]: the IC50 was determined as 19.9 ± 1.7 nM.

As for `COc1ncccc1-c1cccc(CCN(C)C)c1` [Example 36, {2-[3-(2-Methoxy-pyridin-3-yl)-phenyl]-ethyl}-dimethyl-amine], the IC50 was determined as 303 nM.

The assay is the same for the next values; noted with them: [125I]LSD 0.82 nM, h5HT7 in CHO cells; read-out: 5-HT7 IC50.
Turning to `Cc1nn(C)c(C)c1-c1cccc(CCN2CCCC2)c1` [Example 42, 1,3,5-Trimethyl-4-[3-(2-pyrrolidin-1-yl-ethyl)-phenyl]-1H-pyrazole], the IC50 was found to be 139 ± 0.7 nM.

Consider `Cc1noc(C)c1-c1cccc(CCN(C)C)c1` [Example 25, {2-[3-(3,5-Dimethyl-isoxazol-4-yl)-phenyl]-ethyl}-dimethyl-amine], for which the IC50 turned out to be 802 ± 159 nM.

With `CCN(CC)CCc1cccc(-c2cnn(C)c2)c1` [Example 19, Diethyl-{2-[3-(1-methyl-1H-pyrazol-4-yl)-phenyl]-ethyl}-amine], the IC50 worked out at 753 nM.

With `CCCN(CCC)CCc1cccc(-c2c(C)noc2C)c1` [Example 28, {2-[3-(3,5-Dimethyl-isoxazol-4-yl)-phenyl]-ethyl}-dipropyl-amine], the IC50 was 602 nM.

`CCN(CC)CCc1cccc(-c2ccccc2OC)c1` [Example 23, Diethyl-[2-(2′-methoxy-biphenyl-3-yl)-ethyl]-amine]: the IC50 came out at 155 nM.

For `Cc1n[nH]c(C)c1-c1cccc(CCN(C)C)c1` [Example 5, {2-[3-(3,5-Dimethyl-1H-pyrazol-4-yl)-phenyl]-ethyl}-dimethyl-amine], the IC50 turned out to be 129 ± 16.8 nM.

`CCN(CC)CCc1cccc(-c2c(OC)cccc2OC)c1` [Example 15, [2-(2′,6′-Dimethoxy-biphenyl-3-yl)-ethyl]-diethyl-amine]: the IC50 was 302 nM.

On to `CCCN(CCC)CCc1cccc(-c2c(OC)cccc2OC)c1` [Example 16, [2-(2′,6′-Dimethoxy-biphenyl-3-yl)-ethyl]-dipropyl-amine], for which the IC50 was 118 ± 45.9 nM.

A further assay deals with 5HT7 receptor (Homo sapiens, UniProt P34969). Nature of the assay: Functionality assay on the 5HT7 receptor. In kind it is biochemical.
5HT7 receptor, sequence (P34969 whole entry): as above
Conditions: not given
The text has this: Functionality assay on the 5HT7 receptor were done according to those known in the state of the art.
`Cc1nn(C)c(C)c1-c1cccc(CCN(C)C)c1` [Example 1, Dimethyl-{2-[3-(1,3,5-trimethyl-1H-pyrazol-4-yl)-phenyl]-ethyl}-amine] displayed an EC50 of 25.5 ± 2 nM and an Emax of 94%.
